Test results from patent publication US20070074300A1, “Sialidase inhibitors for the treatment of cardiovascular disease” (priority 2005, published 2007).

Experiments:
ApoE KO mice [1] = assay: Atherosclerosis (aortic sinus lesion area and volume) in apoE KO mice treated with sialidase inhibitor; type: in vivo, mouse; conditions: male apoE KO mice aged 7 months, mini-osmotic pump 1.5 micro-g/day for 6 weeks, vs saline
Protocol: FIG. 9 illustrate a morphometric evaluation of atherosclerotic lesion area (A) and volume (B) in the aortic sinus of male ApoE−/− mice treated for 6 weeks with the sialic acid inhibitor ADDN (N-Acetyl-2,3-dehydro-2-deoxyneuraminic acid). Mice aged 7 months were treated for 6 weeks with either saline or the sialic acid inhibitor ADDN. (n=8 in each case). A third group of mice was euthanized at the beginning of the experiment so that the level of atherosclerosis at the time that treatment was initiated could be measured (Base, n=9). Atherosclerotic lesion cross sectional areas in the aortic root (A) and lesion volumes (B) were measured. Values are the averages ±standard error of the mean. Lesion progression was reduced in ADDN-treated mice compared to saline controls. […]
For diet-induced atherosclerosis, mice were fed (beginning four weeks after transplantation) with a high fat, Western-type diet (Covey et al 2003) obtained from Dyets, Inc. (Bethlehem Pa.). […] Atherosclerotic plaque cross sectional area was measured by morphometry using Axiovision software (Carl Zeiss Canada, Inc). A total of eight sections lying at 0.1 mm intervals along the aortic sinus were analyzed for each mouse. […] The volume of atherosclerotic plaque was therefore calculated as the sum of the volumes determined for each 0.1 mm portion of the aortic sinus. […]

ApoE KO mice [2] = assay: Serum glucose and serum/lipoprotein cholesterol in apoE KO mice treated with sialidase inhibitor; type: in vivo, mouse; conditions: vs saline control, FIG. 8
Protocol: Control mice received daily injections of saline. Data reveal significant reductions in serum glucose levels, and total and LDL cholesterol. P<0.01.
Plasma was prepared from heparinized blood collected by cardiac puncture (Covey et al 2003). Serum was collected from blood using serum separators (Becton Dickenson). Serum was submitted to the Clinical Diagnostic Laboratory at the McMaster University Medical Centre for analyses of standard metabolic parameters including total cholesterol, LDL cholesterol and glucose. Lipoproteins from plasma were separated by size by fast protein liquid chromatography (FPLC) using an AKTA system (Amersham Biosciences, Inc.) with a Superose 6 HR 10/30 column, as described previously (Covey et al 2003). The total cholesterol content in each fraction was assayed using an enzymatic assay kit from Thermo DMA. Lipoproteins (VLDL, LDL and HDL) from human plasma were run as controls to calibrate the column.
The inhibitor, N-Acetyl-2,3-dehydro-2-deoxyneuraminic acid (ADDN), was obtained from Sigma Chemical Company (St. Louis, Mo.). ApoE KO mice were ˜6 weeks of age at the beginning of the study. The mice were randomized into 2 groups of 6. The control group received daily i.p injections of 0.9% saline (0.1 ml/day for […]). The experimental group received daily i.p. injections of 0.9% saline (0.1 ml per day) containing either 0.1 or 0.4 ug ADDN for 7 days. Serum was collected on day 7 and serum glucose, total cholesterol and LDL levels were measured.

[3] = system: differentiated human THP-1 macrophages; assay: IL-6 production by differentiated THP-1 macrophages in culture (ELISA); type: cell-based; conditions: differentiated THP-1 macrophages incubated 3 days with varying concentrations; IL-6 in culture supernatant by ELISA; FIG. 7
Protocol: The effects of a sialidase inhibitor, N-acetyl-2,3-dehydro-2-deoxyneuraminic acid (ADDN), on the production of the inflammatory cytokine interleukin-6 (IL-6) by differentiated human THP-1 macrophages in culture was measured.
FIG. 7 illustrates that the inhibition of sialidase activity suppresses production of the pro-atherogenic cytokine IL-6 in differentiated THP-1 macrophages. Differentiated THP-1 macrophages were incubated for 3 days with the varying concentrations of the sialidase inhibitor ADDN. Levels of the cytokine IL-6 in samples of the cell culture supernatant were quantified by ELISA. Data are presented as the mean±standard deviation of triplicate experimental groups. (* denotes significant difference, P<0.001).

[4] = daily i.p. 0.1 or 0.4 ug for 7 days

For `CC(=O)N[C@H]1[C@H]([C@H](O)[C@H](O)CO)OC(C(=O)O)=C[C@@H]1O` [ADDN, N-Acetyl-2,3-dehydro-2-deoxyneuraminic acid], the “growth of atherosclerotic plaque cross sectional area from baseline” value (ApoE KO mice [1]; aortic root, FIG. 9A) was “substantially inhibited”, the “growth of atherosclerotic plaque volume from baseline” value (ApoE KO mice [1]; aortic sinus, FIG. 9B) was “substantially inhibited” and the LDL cholesterol (ApoE KO mice [2]; [4]) was “significantly less”. For the same molecule, the serum glucose (ApoE KO mice [2]; [4]) was “significantly decreased”, the serum total cholesterol (ApoE KO mice [2]; [4]) was “significantly less” and the HDL cholesterol (ApoE KO mice [2]; daily i.p. injections) was “significantly less”. For the same molecule, the “production of the inflammatory cytokine IL-6” value [3] was “reduced production of IL-6”.
